{"source": "paper PMC7150891", "about": "“Mertansine Inhibits mRNA Expression and Enzyme Activities of Cytochrome P450s and Uridine 5′-Diphospho-Glucuronosyltransferases in Human Hepatocytes and Liver Microsomes” (Pharmaceutics, 2020)", "key": {"CYP2C9 mRNA": {"tested_on": "CYP2C9 mRNA", "experiment": "CYP2C9 mRNA level in human hepatocytes after 48 h treatment (RT-PCR)", "conditions": "plated cryopreserved human hepatocytes, IC50, suppression of CYP2C9 mRNA expression, 1.25–2500 nM"}, "[1]": {"tested_on": "CYP2B6 mRNA (suppression of expression)", "experiment": "CYP2B6 mRNA level in human hepatocytes after 48 h treatment (RT-PCR)", "type": "cell-based", "conditions": "1.25–2500 nM", "description": "(§1) 12.5 (Systat Software, Inc.; San Jose, CA, USA). […] 1.1 (Systat Software, Inc.)."}, "CYP2B6 mRNA": {"tested_on": "CYP2B6 mRNA", "experiment": "CYP2B6 mRNA level in human hepatocytes after 48 h treatment (RT-PCR)", "type": "cell-based", "conditions": "Mean ± SD of three human hepatocyte lots, 48 h, 1.25–2500 nM, read-out: IC50, suppression of CYP2B6 mRNA expression", "description": "as §1"}, "CYP1A2": {"tested_on": "CYP1A2", "experiment": "CYP1A2-catalyzed phenacetin O-deethylase activity in human hepatocytes after 48 h treatment", "experimental": "Samples were incubated for 48 h at 37 °C in 5% CO2, and the medium was exchanged with 250 μL of fresh medium containing drugs or the vehicle every 24 h.\nThe effects of mertansine on CYP1A2, CYP2B6, and CYP3A4 activities were evaluated. […] Mixtures were vortexed for 2 min and then centrifuged at 13,000 g for 4 min at 4 °C. The supernatant (40 µL) was diluted with 60 µL of deionized water and then mixed for 2 min by vortexing. An aliquot (5 µL) was analyzed using LC-MS/MS [37], and CYP1A2, CYP2B6, and CYP3A4 enzyme activities were expressed as formation rates (pmol/million cells/min).\nThe percentage changes in enzymatic activities were calculated as (CYP activity with test compound treatment/CYP activity with vehicle control treatment) × 100. The IC50 (the concentration of the inhibitor needed for half-maximal inhibition) values were calculated using SigmaPlot ver. […] Ki (the inhibition constant) and the inhibition mode of UGT1A1, UGT1A3, and UGT1A4 activities were determined using Enzyme Kinetics ver. 1.1 (Systat Software, Inc.)."}, "[2]": {"conditions": "human hepatocytes Lot 319, 48 h"}, "[3]": {"conditions": "human hepatocytes Lot 321, 48 h"}, "[4]": {"conditions": "human hepatocytes Lot 361, 48 h"}}, "data": [{"smiles": "COc1cc2cc(c1Cl)N(C)C(=O)CC(OC(=O)C(C)N(C)C(=O)CCS)C1(C)OC1C(C)C1CC(O)(NC(=O)O1)C(OC)C=CC=C(C)C2", "note": "(stereo not shown) [mertansine, Mertansine]", "values": [{"measurement": "IC50 at 48 h", "setting": "CYP2C9 mRNA; Mean ± SD of three human hepatocyte lots, 48 h", "result": "578 ± 452", "unit": "nM"}, {"measurement": "IC50 at 48 h", "setting": "CYP2C9 mRNA; [2]", "result": 788, "unit": "nM"}, {"measurement": "IC50 at 48 h", "setting": "CYP2C9 mRNA; [3]", "result": 888, "unit": "nM"}, {"measurement": "IC50 at 48 h", "setting": "CYP2C9 mRNA; [4]", "result": 59.6, "unit": "nM"}, {"measurement": "IC50 at 48 h", "setting": "[1]; [2]", "result": 25, "unit": "nM"}, {"measurement": "IC50 at 48 h", "setting": "[1]; [3]", "result": 57.8, "unit": "nM"}, {"measurement": "IC50 at 48 h", "setting": "[1]; [4]", "result": 27.6, "unit": "nM"}, {"measurement": "IC50 at 48 h", "setting": "CYP2B6 mRNA", "result": "36.8 ± 18.3", "unit": "nM"}, {"measurement": "Mean decrease of CYP1A2-mediated phenacetin O-deethylase activity", "setting": "CYP1A2; highest concentration (2500 nM), 48 h, mean of three human hepatocytes", "result": 48.3, "unit": "%"}, {"measurement": "Decrease of CYP1A2-mediated phenacetin O-deethylase activity compared to vehicle", "setting": "CYP1A2; mertansine 48 h, three human hepatocytes", "result": "27.8–79.0%"}]}]}
